Laboratory results as given in patent US12077503B2, “Substituted cyclic amides and their use as herbicides” (FMC CORPORATION, priority 2015, dated 2024).
Read-outs that look alike come from different tables or passages of the source.

How the values were obtained:
[1] = tested on: pigweed (Amaranthus retroflexus); test: Test A preemergence; format: in vivo; details: Amaranthus retroflexus, pre-emergence, 240 h; for pest or weed control at 500 g/ha: 500 g ai/ha; for pest or weed control at 125 g/ha: 125 g ai/ha
[2] = tested on: ryegrass, Italian (Italian ryegrass, Lolium multiflorum); test: Test A preemergence; format: in vivo; details: Lolium multiflorum, pre-emergence, 240 h; for pest or weed control at 500 g/ha: 500 g ai/ha; for pest or weed control at 125 g/ha: 125 g ai/ha
Method in brief: (§1)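 Preemergence soil spray on seeded pots or post-emergence spray on 1–2 leaf plants, in loam–sand blend. Greenhouse ~10 d. Visual rating 0–100 against untreated plants.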

[3] = tested on: ragweed (common ragweed, Ambrosia elatior); test: Test A preemergence; format: in vivo; details: Ambrosia artemisiifolia, pre-emergence, 240 h; for pest or weed control at 500 g/ha: 500 g ai/ha; for pest or weed control at 125 g/ha: 125 g ai/ha
Method in brief: as §1

[4] = tested on: giant foxtail (Setaria faberii); test: Test A preemergence; format: in vivo; details: Setaria faberi, pre-emergence, 240 h; for pest or weed control at 500 g/ha: 500 g ai/ha; for pest or weed control at 125 g/ha: 125 g ai/ha
Method in brief: as §1

Kochia (Kochia scoparia) = test: Test A preemergence; format: in vivo; details: Bassia scoparia, pre-emergence, 240 h; for pest or weed control at 500 g/ha: 500 g ai/ha; for pest or weed control at 125 g/ha: 125 g ai/ha
Method in brief: as §1

[5] = tested on: barnyardgrass (Echinochloa crus-galli); test: Test A preemergence; format: in vivo; details: Echinochloa crus-galli, pre-emergence, 240 h; for pest or weed control at 500 g/ha: 500 g ai/ha; for pest or weed control at 125 g/ha: 125 g ai/ha
Method in brief: as §1

[6] = preemergence, 0 to 100 scale (0 no effect, 100 complete control), read-out: Plant response rating, Pigweed
[7] = Preemergence, 0 to 100 scale (0 no effect, 100 complete control), read-out: Plant response rating, Pigweed
[8] = preemergence, 0 to 100 scale (0 no effect, 100 complete control), read-out: Plant response rating, Ryegrass, Italian
[9] = Preemergence, 0 to 100 scale (0 no effect, 100 complete control), read-out: Plant response rating, Ryegrass, Italian
[10] = preemergence, 0 to 100 scale (0 no effect, 100 complete control), read-out: Plant response rating, Ragweed
[11] = Preemergence, 0 to 100 scale (0 no effect, 100 complete control), read-out: Plant response rating, Ragweed
[12] = preemergence, 0 to 100 scale (0 no effect, 100 complete control), read-out: Plant response rating, Foxtail, Giant
[13] = Preemergence, 0 to 100 scale (0 no effect, 100 complete control), read-out: Plant response rating, Foxtail, Giant
[14] = preemergence, 0 to 100 scale (0 no effect, 100 complete control), read-out: Plant response rating, Kochia
[15] = Preemergence, 0 to 100 scale (0 no effect, 100 complete control), read-out: Plant response rating, Kochia
[16] = preemergence, 0 to 100 scale (0 no effect, 100 complete control), read-out: Plant response rating, Barnyardgrass
[17] = Preemergence, 0 to 100 scale (0 no effect, 100 complete control), read-out: Plant response rating, Barnyardgrass
[18] = preemergence, visual rating after approx. 10 d, 0 to 100 scale where 0 is no effect and 100 is complete control, read-out: Plant response rating, Pigweed
[19] = preemergence, visual rating after approx. 10 d, 0 to 100 scale where 0 is no effect and 100 is complete control, read-out: Plant response rating, Ryegrass, Italian
[20] = preemergence, visual rating after approx. 10 d, 0 to 100 scale where 0 is no effect and 100 is complete control, read-out: Plant response rating, Ragweed
[21] = preemergence, visual rating after approx. 10 d, 0 to 100 scale where 0 is no effect and 100 is complete control, read-out: Plant response rating, Foxtail, Giant
[22] = preemergence, visual rating after approx. 10 d, 0 to 100 scale where 0 is no effect and 100 is complete control, read-out: Plant response rating, Kochia
[23] = preemergence, visual rating after approx. 10 d, 0 to 100 scale where 0 is no effect and 100 is complete control, read-out: Plant response rating, Barnyardgrass
[24] = preemergence, visual injury rating, 0 to 100 scale where 0 is no effect and 100 is complete control, approximately 10 d, read-out: Pigweed plant response rating
[25] = preemergence, 0 to 100 scale where 0 is no effect and 100 is complete control, read-out: Pigweed plant response rating
[26] = preemergence, visual injury rating, 0 to 100 scale where 0 is no effect and 100 is complete control, approximately 10 d, read-out: Ryegrass, Italian plant response rating
[27] = preemergence, 0 to 100 scale where 0 is no effect and 100 is complete control, read-out: Ryegrass, Italian plant response rating
[28] = preemergence, visual injury rating, 0 to 100 scale where 0 is no effect and 100 is complete control, approximately 10 d, read-out: Ragweed plant response rating
[29] = preemergence, 0 to 100 scale where 0 is no effect and 100 is complete control, read-out: Ragweed plant response rating
[30] = preemergence, visual injury rating, 0 to 100 scale where 0 is no effect and 100 is complete control, approximately 10 d, read-out: Foxtail, Giant plant response rating
[31] = preemergence, 0 to 100 scale where 0 is no effect and 100 is complete control, read-out: Foxtail, Giant plant response rating
[32] = preemergence, visual injury rating, 0 to 100 scale where 0 is no effect and 100 is complete control, approximately 10 d, read-out: Kochia plant response rating
[33] = preemergence, 0 to 100 scale where 0 is no effect and 100 is complete control, read-out: Kochia plant response rating
[34] = preemergence, visual injury rating, 0 to 100 scale where 0 is no effect and 100 is complete control, approximately 10 d, read-out: Barnyardgrass plant response rating
[35] = preemergence, 0 to 100 scale where 0 is no effect and 100 is complete control, read-out: Barnyardgrass plant response rating

SMILES: O=C1NC[C@H](c2nccc(C(F)(F)F)n2)[C@H]1C(=O)Nc1cccc(F)c1F [Compound 1392]
- pest or weed control at 500 g/ha [1, 6]: 0%
- pest or weed control at 125 g/ha [1, 7]: 0%
- pest or weed control at 500 g/ha [2, 8]: 0%
- pest or weed control at 125 g/ha [2, 9]: 0%
- pest or weed control at 500 g/ha [3, 10]: 0%
- pest or weed control at 125 g/ha [3, 11]: 0%
- pest or weed control at 500 g/ha [4, 12]: 60%
- pest or weed control at 125 g/ha [4, 13]: 0%
- pest or weed control at 500 g/ha (Kochia (Kochia scoparia); [14]): 0%
- pest or weed control at 125 g/ha (Kochia (Kochia scoparia); [15]): 0%
- pest or weed control at 500 g/ha [5, 16]: 60%
- pest or weed control at 125 g/ha [5, 17]: 0%
- melting point: 154 to 158 °C

SMILES: Cc1c(F)cccc1NC(=O)[C@H]1C(=O)N(C)C[C@@H]1c1ccc(C(F)(F)F)cc1 [Compound 1386]
- pest or weed control at 500 g/ha [1, 6]: 90%
- pest or weed control at 125 g/ha [1, 7]: 80%
- pest or weed control at 500 g/ha [2, 8]: 70%
- pest or weed control at 125 g/ha [2, 9]: 50%
- pest or weed control at 500 g/ha [3, 10]: 80%
- pest or weed control at 125 g/ha [3, 11]: 60%
- pest or weed control at 500 g/ha [4, 12]: 90%
- pest or weed control at 125 g/ha [4, 13]: 90%
- pest or weed control at 500 g/ha (Kochia (Kochia scoparia); [14]): 90%
- pest or weed control at 125 g/ha (Kochia (Kochia scoparia); [15]): 80%
- pest or weed control at 500 g/ha [5, 16]: 100%
- pest or weed control at 125 g/ha [5, 17]: 90%
- melting point: 156 to 160 °C

SMILES: CN1C[C@H](c2cc(F)cc(F)c2)[C@@H](C(=O)Nc2ccccc2S(C)(=O)=O)C1=O [Compound 739]
- pest or weed control at 125 g/ha [1, 18]: 0%
- pest or weed control at 500 g/ha ([1]; preemergence, 0 to 100 scale, 0 = no effect, 100 = complete control, read-out: Plant response rating, Pigweed): 30%
- pest or weed control at 125 g/ha [2, 19]: 0%
- pest or weed control at 500 g/ha ([2]; preemergence, 0 to 100 scale, 0 = no effect, 100 = complete control, read-out: Plant response rating, Ryegrass, Italian): 30%
- pest or weed control at 125 g/ha [3, 20]: 50%
- pest or weed control at 500 g/ha ([3]; preemergence, 0 to 100 scale, 0 = no effect, 100 = complete control, read-out: Plant response rating, Ragweed): 80%
- pest or weed control at 125 g/ha [4, 21]: 90%
- pest or weed control at 500 g/ha ([4]; preemergence, 0 to 100 scale, 0 = no effect, 100 = complete control, read-out: Plant response rating, Foxtail, Giant): 100%
- pest or weed control at 125 g/ha (Kochia (Kochia scoparia); [22]): 30%
- pest or weed control at 500 g/ha (Kochia (Kochia scoparia); preemergence, 0 to 100 scale, 0 = no effect, 100 = complete control, read-out: Plant response rating, Kochia): 80%
- pest or weed control at 125 g/ha [5, 23]: 90%
- pest or weed control at 500 g/ha ([5]; preemergence, 0 to 100 scale, 0 = no effect, 100 = complete control, read-out: Plant response rating, Barnyardgrass): 100%

SMILES: CN1CC[C@@H](c2cccc(C(F)(F)F)c2)[C@H](C(=O)Nc2ccccc2F)C1=O [Compound 794]
- pest or weed control at 125 g/ha [1, 18]: 0%
- pest or weed control at 31 g/ha ([1]; Preemergence, 31 g ai/ha, 0 to 100 scale (0 no effect, 100 complete control), read-out: Plant response rating, Pigweed): 0%
- pest or weed control at 125 g/ha [2, 19]: 0%
- pest or weed control at 31 g/ha ([2]; Preemergence, 31 g ai/ha, 0 to 100 scale (0 no effect, 100 complete control), read-out: Plant response rating, Ryegrass, Italian): 0%
- pest or weed control at 125 g/ha [3, 20]: 0%
- pest or weed control at 31 g/ha ([3]; Preemergence, 31 g ai/ha, 0 to 100 scale (0 no effect, 100 complete control), read-out: Plant response rating, Ragweed): 0%
- pest or weed control at 125 g/ha [4, 21]: 90%
- pest or weed control at 31 g/ha ([4]; Preemergence, 31 g ai/ha, 0 to 100 scale (0 no effect, 100 complete control), read-out: Plant response rating, Foxtail, Giant): 30%
- pest or weed control at 125 g/ha (Kochia (Kochia scoparia); [22]): 0%
- pest or weed control at 31 g/ha (Kochia (Kochia scoparia); Preemergence, 31 g ai/ha, 0 to 100 scale (0 no effect, 100 complete control), read-out: Plant response rating, Kochia): 0%
- pest or weed control at 125 g/ha [5, 23]: 90%
- pest or weed control at 31 g/ha ([5]; Preemergence, 31 g ai/ha, 0 to 100 scale (0 no effect, 100 complete control), read-out: Plant response rating, Barnyardgrass): 70%

SMILES: CN1C[C@H](c2ccc(F)c(Br)c2)[C@@H](C(=O)Nc2cccc(F)c2F)C1=O [Compound 1234]
- pest or weed control at 125 g/ha [1, 24]: 70%
- pest or weed control at 500 g/ha [1, 25]: 90%
- pest or weed control at 125 g/ha [2, 26]: 40%
- pest or weed control at 500 g/ha [2, 27]: 80%
- pest or weed control at 125 g/ha [3, 28]: 40%
- pest or weed control at 500 g/ha [3, 29]: 60%
- pest or weed control at 125 g/ha [4, 30]: 100%
- pest or weed control at 500 g/ha [4, 31]: 100%
- pest or weed control at 125 g/ha (Kochia (Kochia scoparia); [32]): 70%
- pest or weed control at 500 g/ha (Kochia (Kochia scoparia); [33]): 80%
- pest or weed control at 125 g/ha [5, 34]: 100%
- pest or weed control at 500 g/ha [5, 35]: 100%

SMILES: COc1cc(OC)cc([C@H]2CN(C)C(=O)[C@@H]2C(=O)Nc2cccc(F)c2F)c1 [Compound 1370]
- pest or weed control at 500 g/ha [1, 6]: 20%
- pest or weed control at 125 g/ha [1, 7]: 0%
- pest or weed control at 500 g/ha [2, 8]: 90%
- pest or weed control at 125 g/ha [2, 9]: 80%
- pest or weed control at 500 g/ha [3, 10]: 80%
- pest or weed control at 125 g/ha [3, 11]: 40%
- pest or weed control at 500 g/ha [4, 12]: 90%
- pest or weed control at 125 g/ha [4, 13]: 90%
- pest or weed control at 500 g/ha (Kochia (Kochia scoparia); [14]): 80%
- pest or weed control at 500 g/ha [5, 16]: 90%
- pest or weed control at 125 g/ha [5, 17]: 90%

SMILES: COc1cc([C@H]2CN(C)C(=O)[C@@H]2C(=O)Nc2cccc(F)c2F)ccc1F [Compound 1299]
- pest or weed control at 125 g/ha [1, 24]: 20%
- pest or weed control at 500 g/ha [1, 25]: 60%
- pest or weed control at 125 g/ha [2, 26]: 30%
- pest or weed control at 500 g/ha [2, 27]: 70%
- pest or weed control at 125 g/ha [3, 28]: 30%
- pest or weed control at 500 g/ha [3, 29]: 70%
- pest or weed control at 125 g/ha [4, 30]: 90%
- pest or weed control at 500 g/ha [4, 31]: 90%
- pest or weed control at 125 g/ha (Kochia (Kochia scoparia); [32]): 70%
- pest or weed control at 500 g/ha (Kochia (Kochia scoparia); [33]): 70%
- pest or weed control at 125 g/ha [5, 34]: 90%
- pest or weed control at 500 g/ha [5, 35]: 90%
